Assay results taken from US20080269213A1, “8-Hydroxyquinoline compounds and methods thereof” (Wyeth, priority 2006, published 2008).
pIC50: −log10 of the molar value. Several values for one entry are separate records, joined by “and”; a condition that tells them apart may be missing. Equal values may be shown once. Read-outs that look alike come from different tables or passages of the source.

How the values were obtained:
Agg-1 = target: T1, Agg-1 (Homo sapiens, UniProt O75173); experiment: Agg-1 FRET assay; assay type: biochemical; conditions: for pIC50: read-out: Agg1 IC50; for inhibition at 7.5 µM: @ 7500 nM; for inhibition at […]: @ 1200 nM; for inhibition at 22 µM: @ 22000 nM; for inhibition at 22.2 µM: @ 22200 nM
T1 sequence (O75173 213-837): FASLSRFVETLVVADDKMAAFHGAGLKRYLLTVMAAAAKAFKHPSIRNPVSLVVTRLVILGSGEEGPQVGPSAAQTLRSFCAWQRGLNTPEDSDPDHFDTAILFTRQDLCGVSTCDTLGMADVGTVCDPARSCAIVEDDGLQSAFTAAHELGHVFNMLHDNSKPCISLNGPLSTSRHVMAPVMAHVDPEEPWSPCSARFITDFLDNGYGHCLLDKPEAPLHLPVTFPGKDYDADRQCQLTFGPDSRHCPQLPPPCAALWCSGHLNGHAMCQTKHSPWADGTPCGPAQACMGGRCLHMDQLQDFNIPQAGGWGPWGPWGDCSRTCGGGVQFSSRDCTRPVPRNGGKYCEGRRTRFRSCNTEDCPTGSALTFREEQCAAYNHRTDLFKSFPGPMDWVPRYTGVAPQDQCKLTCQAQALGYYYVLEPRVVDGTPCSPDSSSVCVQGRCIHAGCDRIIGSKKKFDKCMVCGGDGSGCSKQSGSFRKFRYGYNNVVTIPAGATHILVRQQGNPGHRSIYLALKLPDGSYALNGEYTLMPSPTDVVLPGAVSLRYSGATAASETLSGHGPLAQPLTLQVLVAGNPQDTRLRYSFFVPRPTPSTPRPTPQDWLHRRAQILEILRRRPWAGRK
Text: The Agg-1/Agg-2 FRET data for N-[(8-hydroxyquinolin-2-yl)(phenyl)methyl]-2-phenoxyacetamide and 2-{[(phenoxyacetyl)amino](phenyl)methyl}quinolin-8-yl phenoxyacetate is presented in Table 1.

[1] = target: T2, recombinant human Aggrecanase-2 Agg2-Phe628 (Homo sapiens, UniProt Q9UNA0); experiment: Aggrecanase 2 in vitro enzyme assay (Agg-2 FRET, quenched fluorescent peptide substrate); assay type: biochemical; parameters: purified recombinant human Aggrecanase-2 Agg2-Phe628 (MW=41,737); This is a truncated form of full-length human aggrecanase-2; made in house; host or cells: CHO cells; conditions: for Agg-2 FRET Median PCT INHIB: concentration not given
T2 sequence (Q9UNA0 262-628 limits assumed): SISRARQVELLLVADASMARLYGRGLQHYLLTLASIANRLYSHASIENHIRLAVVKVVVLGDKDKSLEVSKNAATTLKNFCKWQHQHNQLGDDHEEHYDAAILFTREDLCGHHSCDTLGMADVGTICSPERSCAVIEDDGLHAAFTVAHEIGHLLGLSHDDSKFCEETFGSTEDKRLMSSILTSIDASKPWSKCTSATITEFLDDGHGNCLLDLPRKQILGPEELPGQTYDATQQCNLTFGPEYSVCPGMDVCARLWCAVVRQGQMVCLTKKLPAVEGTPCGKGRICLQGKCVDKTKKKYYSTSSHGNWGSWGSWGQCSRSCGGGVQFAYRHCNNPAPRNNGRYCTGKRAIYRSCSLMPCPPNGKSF
Outline: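 Continuous FRET assay with purified truncated human Aggrecanase-2 Agg2-Phe628 (CHO-expressed, 0.5 μg/ml final) and brevican-derived Abz/Dnp peptide (25 μM final) in 50 mM HEPES pH 7.5, 100 mM NaCl, 5 mM CaCl2, 0.1% CHAPS, 5% glycerol. Enzyme preincubated with compound before substrate; fluorescence (ex 340/em 420 nm) followed kinetically 40 min at 30 °C.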

[2] = read-out: Agg-2 FRET Median IC50

| SMILES | pIC50 (Agg-1) | pIC50 ([1]; read-out: Agg2 IC50) | pIC50 [1, 2] | also measured |
| --- | --- | --- | --- | --- |
| O=C(COc1ccccc1)NC(C1=CCCCC1)c1cc(Cl)c2cccnc2c1O (stereo not drawn) [N-[(5-chloro-8-hydroxyquinolin-7-yl)(cyclohex-1-en-1-yl)methyl]-2-phenoxyacetamide] | 5.10 to 6.00 |  |  | inhibition at […] ([1]; @ 1900 nM): 42% |
| COc1cc(OCC(=O)NC(c2ccccc2)c2cc(Cl)c3cccnc3c2O)cc(OC)c1OC (stereo not drawn) [N-[(5-chloro-8-hydroxyquinolin-7-yl)(phenyl)methyl]-2-(3,4,5-trimethoxyphenoxy)acetamide] |  | 5.74 |  | inhibition at 7.5 µM (Agg-1; read-out: Agg1 %): 54% |
| O=C(CN1CCC(c2ccccc2)CC1)NC(c1ccccc1)c1cc(Cl)c2cccnc2c1O (stereo not drawn) [N-[(5-chloro-8-hydroxyquinolin-7-yl)(phenyl)methyl]-2-(4-phenylpiperidin-1-yl)acetamide] | ~4.96 | ~5.43 |  | Agg-2 FRET Median PCT INHIB [1]: 57% |
| O=C(COc1ccccc1)NC(c1cc(Cl)c2cccnc2c1O)c1ccnc2ccccc12 (stereo not drawn) [N-[(5-chloro-8-hydroxyquinolin-7-yl)(quinolin-4-yl)methyl]-2-phenoxyacetamide] |  |  |  | inhibition at 11 µM (Agg-1; @ 11000 nM, read-out: Agg1 %): 34%; inhibition at 2.8 µM ([1]; @ 2800 nM): 45% |
| O=C(COc1ccccc1)NC(c1ccccc1)c1cc(N2CCCC2)c2cccnc2c1O (stereo not drawn) [N-[(8-hydroxy-5-pyrrolidin-1-ylquinolin-7-yl)(phenyl)methyl]-2-phenoxyacetamide] |  | 4.98 | 4.98 | inhibition at 22.2 µM (Agg-1; read-out: Agg1 %): 49% |
| COc1ccc(C(NC(=O)COc2ccccc2)c2cc(Cl)c3cccnc3c2O)cc1OCc1ccccc1 (stereo not drawn) [N-[[3-(benzyloxy)-4-methoxyphenyl](5-chloro-8-hydroxyquinolin-7-yl)methyl]-2-phenoxyacetamide] |  | 5.98 |  | inhibition at 7.5 µM (Agg-1; read-out: Agg1 %): 54% |
| COc1ccc(C(NC(=O)Cc2ccccc2)c2cc(Cl)c3cccnc3c2O)cc1OCc1ccccc1 (stereo not drawn) [N-[[3-(benzyloxy)-4-methoxyphenyl](5-chloro-8-hydroxyquinolin-7-yl)methyl]-2-phenylacetamide] |  |  |  | inhibition at […] (Agg-1; read-out: Agg1 %): 36%; inhibition at […] ([1]; @ 1200 nM): 47% |
| O=C(COc1ccccc1)NC(c1cccc(OCc2ccccc2)c1)c1cc(Cl)c2cccnc2c1O (stereo not drawn) [N-[[3-(benzyloxy)phenyl](5-chloro-8-hydroxyquinolin-7-yl)methyl]-2-phenoxyacetamide] |  |  |  | inhibition at 22.2 µM (Agg-1; read-out: Agg1 %): 47%; inhibition at 3.7 µM ([1]; @ 3700 nM): 48% |
| O=C(COc1ccccc1)NC(c1ccccc1)c1cc(-n2cccc2)c2cccnc2c1O (stereo not drawn) [N-[[8-hydroxy-5-(1H-pyrrol-1-yl)quinolin-7-yl](phenyl)methyl]-2-phenoxyacetamide] |  | 5.78 | 5.78 | inhibition at 200 µM (Agg-1; @ 200000 nM, read-out: Agg1 %): 54% |
| O=C(NC(c1ccc2c(c1)OCO2)c1cc(Cl)c2cccnc2c1O)OCc1ccccc1 (stereo not drawn) [benzyl [1,3-benzodioxol-5-yl(5-chloro-8-hydroxyquinolin-7-yl)methyl]carbamate] | < 5.52 | 5.81 | 5.81 |  |
| O=C(NC(Cc1ccccc1)c1cc(Cl)c2cccnc2c1O)OCc1ccccc1 (stereo not drawn) [benzyl [1-(5-chloro-8-hydroxyquinolin-7-yl)-2-phenylethyl]carbamate] | < 4.17 | < 4.55 |  |  |
| O=C(NC(c1ccco1)c1cc(Cl)c2cccnc2c1O)OCc1ccccc1 (stereo not drawn) [benzyl [(5-chloro-8-hydroxyquinolin-7-yl)(2-furyl)methyl]carbamate] | < 4.70 | < 4.70 |  | Agg-2 FRET Median PCT INHIB [1]: 33% |
| O=C(NC(c1ccccc1)c1cc(Cl)c2cccnc2c1O)OCc1ccccc1 (stereo not drawn) [benzyl [(5-chloro-8-hydroxyquinolin-7-yl)(phenyl)methyl]carbamate] | < 4.00 | < 4.17 |  | Agg-2 FRET Median PCT INHIB [1]: 46% |
| O=C(NC(Cc1cc(Cl)c2cccnc2c1O)c1cccc(CN2CCCC2)c1)c1ccc(-c2ccccc2)cc1 (stereo not drawn) [drawing 58] |  |  |  | IC50 (Agg-1; IC50, read-out: Agg-1 IC50 (μM) or % Inhibition): 5.9 µM; IC50 ([1]; IC50, read-out: Agg-2 IC50 (μM) or % Inhibition): 3.4 µM |
| O=C(NC(Cc1cc(Cl)c2cccnc2c1O)c1cccc(CN2CCCC2)c1)c1ccc(-c2ccccc2)cc1 (stereo not drawn) [drawing 65] |  |  |  | inhibition at 200 µM (Agg-1; read-out: Agg-1 IC50 (μM) or % Inhibition): 54%; inhibition at 50 µM ([1]; read-out: Agg-2 IC50 (μM) or % Inhibition): 50% |

Further lines, with some results ahead:

| pIC50 (Agg-1) | pIC50 ([1]; read-out: Agg2 IC50) | pIC50 [1, 2] | SMILES | also measured |
| --- | --- | --- | --- | --- |
|  | 5.60 | 5.60 | O=C(Cc1ccccc1)NC(c1ccccc1)c1cc(Cl)c2cccnc2c1O (stereo not drawn) [N-[(5-chloro-8-hydroxyquinolin-7-yl)(phenyl)methyl]-2-phenylacetamide] | inhibition at […] (Agg-1; read-out: Agg1 %): 20% |
|  | 5.46 | 5.45 | O=C(COc1ccccc1)NC(c1cc(Cl)c2cccnc2c1O)c1cccc2ncccc12 (stereo not drawn) [N-[(5-chloro-8-hydroxyquinolin-7-yl)(quinolin-5-yl)methyl]-2-phenoxyacetamide] | inhibition at 22 µM (Agg-1; read-out: Agg1 %): 46% |
|  | 5.66 |  | O=C(COc1ccccc1)NC(c1cc(Cl)c2cccnc2c1O)c1cccc2cccnc12 (stereo not drawn) [N-[(5-chloro-8-hydroxyquinolin-7-yl)(quinolin-8-yl)methyl]-2-phenoxyacetamide] | inhibition at 22 µM (Agg-1; read-out: Agg1 %): 55% |
| < 4.52 | 5.86 | 5.86 | O=C(COc1ccccc1)NC(c1cc2c(cc1Cl)OCO2)c1cc(Cl)c2cccnc2c1O (stereo not drawn) [N-[(6-chloro-1,3-benzodioxol-5-yl)(5-chloro-8-hydroxyquinolin-7-yl)methyl]-2-phenoxyacetamide] |  |
|  | 6.01 | 6.01 and 5.91 | O=C(COc1ccccc1)N[C@@H](c1ccccc1Cl)c1cc(Cl)c2cccnc2c1O [N-[(R)-(5-chloro-8-hydroxyquinolin-7-yl)(2-chlorophenyl)methyl]-2-phenoxyacetamide] | inhibition at 22.2 µM (Agg-1; read-out: Agg1 %): 49% |
|  | 6.06 | 6.06 and 5.87 | O=C(COc1ccccc1)N[C@H](c1ccccc1Cl)c1cc(Cl)c2cccnc2c1O [N-[(S)-(5-chloro-8-hydroxyquinolin-7-yl)(2-chlorophenyl)methyl]-2-phenoxyacetamide] | inhibition at 22.2 µM (Agg-1; read-out: Agg1 %): 54% |
| < 4.17 | 5.36 |  | O=C(COc1ccccc1)NC(c1ccc(OCc2ccccc2)cc1)c1cc(Cl)c2cccnc2c1O (stereo not drawn) [N-[[4-(benzyloxy)phenyl](5-chloro-8-hydroxyquinolin-7-yl)methyl]-2-phenoxyacetamide] |  |
| ~4.60 | 4.00 to 4.48 |  | CN(C)c1cc(C(NC(=O)COc2ccccc2)c2ccccc2)c(O)c2ncccc12 (stereo not drawn) [N-[[5-(dimethylamino)-8-hydroxyquinolin-7-yl](phenyl)methyl]-2-phenoxyacetamide] | Agg-2 FRET Median PCT INHIB [1]: 58% |
| < 3.70 | 5.27 |  | O=C(COc1ccccc1)NC(c1ccc(-c2ccccc2)cc1)c1cc(Cl)c2cccnc2c1O (stereo not drawn) [N-[biphenyl-4-yl(5-chloro-8-hydroxyquinolin-7-yl)methyl]-2-phenoxyacetamide] |  |
| < 4.17 | ~5.60 |  | O=C(NC(c1ccccc1Cl)c1cc(Cl)c2cccnc2c1O)OCc1ccccc1 (stereo not drawn) [benzyl [(5-chloro-8-hydroxyquinolin-7-yl)(2-chlorophenyl)methyl]carbamate] | Agg-2 FRET Median PCT INHIB [1]: 56% |
